Laboratory results from patent publication US8080235B2, “Protein kinase A reporters useful in high throughput assays” (The Johns Hopkins University, priority 2005, dated 2011).
Where two headings read alike, the source gives them in different places.

Assays:
PKA activity [1] = assay: AKAR3 live cell 96-well plate reader assay (yellow/cyan emission ratio); format: cell-based; conditions: for increase in yellow-to-cyan emission ratio of AKAR3: HEK-203 (sic) cells expressing AKAR3, 96-well plate, n=3
Protocol: (§1) Live Cell Plate Reading. HEK-293 cells were transfected with AKAR3 or ICUE3 using calcium phosphate at 40% confluency and grown for 40 hours. Cells were then trypsinized and plated in a Costar 3603 96-well plate (Corning) at a density of 150,000 cells per well. After incubation for another 24 hours, cells were washed once with HBSS and left in 150 μl of HBSS at 20-25° C. Fluorescence reading was taken on a FLUOstar OPTIMA fluorescence microplate reader (BMG Labtechnologies Inc.) using a 420DF20 excitation filter and two emission filters (470DF40 for cyan and 535DF25 for yellow). A baseline was established in three cycles, each consisting of a full plate reading of yellow intensity, followed by a reading of cyan intensity.
(§2) Each cycle lasted between 64 and 92 seconds. Cells were then treated with ISO, Fsk, H89, Propranolol (Pro; Sigma), or 3-isobutyl-1-methylxanthine (IBMX; Sigma) as indicated. Readings were taken in additional cycles. FRET change was calculated as the percent increase of emission ratios (yellow-to-cyan for AKAR and cyan-to-yellow for ICUE) over baseline for each well during a given cycle. Several parameters were calculated to assess the efficiency of the assay, including Z′ factor, coefficient of variation, and signal to noise (S/N) ratio (22).
AKAR2 (FIG. 4). This reporter, AKAR3 (FIG. 1b), was tested in a 96-well plate format. […] As negative controls, addition of buffer of 2% DMSO generated minimal changes in emission ratios. This 96-well plate assay was sensitive and reproducible, with a signal to noise ratio of 30.3, a Z′ factor of 0.84, and a coefficient of variation (CV) of 1.8% for the Fsk-stimulated response.
To provide specific readout of compartmentalized PKA activities, we introduced a C-terminal nuclear export signal (NES) to AKAR3 . In the plate reader assay using AKAR3 -NES (FIG. 1d), cytosolic PKA activity was recorded without contamination of nuclear activity, which has slower kinetics due to diffusional translocation of the catalytic subunit from cytosol to nucleus. […] Thus, sensor targeting provides increased temporal and spatial resolution and can be used to reveal how individual signaling microdomains, such as kinase-containing signaling complexes, are affected by drugs or other perturbations, adding another level of capacity to the non-image-based high-throughput assays of the invention.

PKA activity [2] = assay: AKAR single-cell live imaging in HEK-293 cells; format: cell-based; conditions: for AKAR3 response in single cell imaging: HEK-293, 10 μM epinephrine, 50 μM ritodrine, IBMX alone
Protocol: Cell Culture and Imaging. HEK-293 cells were plated onto sterilized glass coverslips in 35 mm dishes and grown to ˜50% confluency in DMEM (10% FBS at 37° C. with 5% CO2). Cells were transfected with calcium phosphate and grown for 12-24 hours before imaging. After washing once with Hanks' balanced salt solution (HBSS), cells were maintained in buffer in the dark at 20-25° C. Isoproterenol (ISO; Sigma), forskolin (Fsk; Calbiochem), H89 (Sigma) were added as indicated. Cells were imaged on a Zeiss Axiovert 200M microscope with a 40×/1.3NA oil-immersion objective lens and cooled CCD camera as described in (21). Briefly, dual emission ratio imaging used a 420DF20 excitation filter, a 450DRLP dichroic mirror, and two emission filters (475DF40 for cyan and 535DF25 for yellow). The ratios of yellow-to-cyan (for AKAR) or cyan-to-yellow (for ICUE) emissions were then calculated at different time points and normalized by dividing all ratios by the emission ratio before stimulation, setting basal emission ratio as 1.
One of the important advantages of genetically encoded reporters of the invention is that they can be targeted to subcellular locations via various targeting motifs. However, in some cases, subcellular targeting may sacrifice the response amplitude of a reporter. To determine whether the improved dynamic range of AKAR3 leads to sensitive detection of subcellular PKA activities, AKAR3 was targeted to two cellular compartments.

cAMP [3] = assay: ICUE3 live cell high-throughput cAMP plate reader assay (cyan/yellow emission ratio); format: cell-based
Protocol: as §1, §2
To follow the activity of the signaling pathway and to assay related drug targets in parallel, we developed a live cell-based high-throughput assay for cAMP, a second messenger that is generated via activation of Gs-coupled GPCRs and exerts its effects by activating PKA and other effectors. Similar improvement approaches were first applied to create a reporter that more than doubled the response of previous “Indicator for cAMP Using Epac” (ICUE), which generates a decrease in FRET upon binding of cAMP (FIG. 5). […] Possible sources of the variation and reduced signal are transfection efficiency and expression variability.

PKA activity [4] = assay: AKAR3 high-throughput screening of Johns Hopkins Clinical Compound Library; format: cell-based; conditions: for agonist screen: AKAR response to compound alone: 10 μM, hit = larger than 6 times the standard deviation above negative control
Protocol: Live Cell High-Throughput Screening. […] After incubation for 24 hours, cells were washed once with HBSS and left in 190 μl of HBSS at 20-25° C. Fluorescence readings were taken as described above, with each cycle lasting 90 seconds. Following baseline acquisition, cells in each experimental well were treated with a compound from the Johns Hopkins Clinical Compound Library to a final concentration of 10 μM. Control cells were treated with 10 μL of 10% fetal bovine serum (FBS) in a solution of phosphate buffered saline (PBS) at pH 7.4, which is the solution used to dissolve library compounds.
Ten final cycles were then performed.
FRET responses were calculated as described above. […] Agonist hits were defined as compounds eliciting responses larger than six times the standard deviation above the baseline. Antagonist hits were defined as compounds which decreased the ISO stimulated response by 50% or by six times the standard deviation.
In a primary screening, 160 compounds from the Johns Hopkins Clinical Compound Library were added to AKAR3-expressing HEK-293 cells in individual wells of 96-well plates to a final concentration of 10 μM after a base line reading. Time courses were recorded to monitor any fluorescence changes upon drug addition and to identify hits which activate PKA as potential agonists.
Potential agonists were identified by selecting compounds which stimulated emission ratio changes larger than 6 times the standard deviation above the negative control (FIG. 3a ).

cAMP [5] = assay: ICUE single cell imaging, ISO stimulation in the presence of IBMX; format: cell-based; conditions: FIG. 3e, read-out: inhibition of ISO-stimulated ICUE response
Protocol: FIG. 3. High-throughput screening. FIG. 3A, normalized emission ratio (yellow/cyan) from cells expressing AKAR3 treated with individual library compounds, compared to the negative control in which only buffer was added and the positive control in which ISO (250 nM) was added (agonist screen). Individual bars along the X axis represent individual library compounds. The asterisks indicate responses of ritrodrine, ISO, and epinephrine. FIG. 3B, normalized emission ratio (yellow/cyan) from cells expressing AKAR3 first treated with individual library compounds for about 15 minutes, then stimulated by ISO (250 nM) (antagonist screen). The positive control in which only ISO was added and the negative control in which only buffer was added are shown as labeled. Individual bars along the X axis represent individual library compounds. The asterisks indicate responses from epinephrine and propranolol treated cells in response to ISO. FIG. 3C, representative time courses of emission ratio (yellow/cyan) change of cells expressing AKAR3 treated with 10 μM epinephrine followed by 50 μM FSK in single-cell imaging experiments. […]
Cell Culture and Imaging. […] The ratios of yellow-to-cyan (for AKAR) or cyan-to-yellow (for ICUE) emissions were then calculated at different time points and normalized by dividing all ratios by the emission ratio before stimulation, setting basal emission ratio as 1. […]

catalytic subunit of PKA = catalytic subunit of PKA (Homo sapiens, UniProt P17612); assay: In vitro kinase assay with purified AKAR3 protein; format: biochemical; conditions: n=2
Protocol: FIG. 7. Further characterization of AKAR3. Representative time courses of plasma membrane-targeted AKAR3 (FIG. 7a ) and nuclear-targeted AKAR3 (FIG. 7b ) in HEK-293 cells stimulated with 1 μM ISO and 50 μM FSK, respectively. FIG. 7c , AKAR3-expressing HEK-293 cells were treated with 200 nM phorbol dibutyrate (PDBu), a protein kinase C activator, followed by the addition of 1 μM isoproterenol, then 50 μM forskolin. FIG. 7d , representative time courses of the emission ratio change of AKAR3 in the presence (closed squares) and absence (open circles) of the specific PKA inhibitor, PKI. FIG. 7e , emission spectra of the purified AKAR3 before (squares) and after (diamonds) phosphorylation by PKA (excitation 434 nm). The curve using triangle symbols depicts the spectrum of the reporter after digestion with trypsin to quench the energy transfer and quantify the FRET. FIG. 7f , a representative phosphorylation time course for purified AKAR3 protein in the presence of PKA catalytic subunit and 1 mM ATP.
Lastly, in vitro kinase assays were carried out using purified AKAR3 protein from mammalian cell lysates.

C=C[C@@]1(C)CC(=O)[C@]2(O)[C@@]3(C)[C@@H](O)CCC(C)(C)[C@@H]3[C@H](O)[C@H](OC(C)=O)[C@@]2(C)O1 [Fsk, forskolin]
increase in yellow-to-cyan emission ratio of AKAR3 (PKA activity [1]): 25.7%±0.7% | average nuclear response of nuclear-targeted AKAR3 (PKA activity [2]; HEK-293, 50 μM FSK, n=3, slower kinetics, FIG. 7b): 38.6%±8.45% | Emax (cAMP [3]; stable cell line, read-out: maximum response of ICUE assay): 43.3% | Emax (cAMP [3]; transient transfection, Fsk in the presence of 100 μM IBMX, FIG. 2c, read-out: maximum response of ICUE3): 24.1%

O=S(=O)(NCCNC/C=C/c1ccc(Br)cc1)c1cccc2cnccc12 [H89]
effect on Fsk-stimulated AKAR3 response (PKA activity [1]; FIG. 2d): diminished | effect on AKAR3 response (PKA specificity) (PKA activity [2]; PKI co-expression or H89 pretreatment): abolished | effect on Fsk-stimulated ICUE3 response (cAMP [3]; FIG. 2c): increased the ICUE3 response

CC(C)Cn1c(=O)n(C)c(=O)c2[nH]cnc21 [IBMX, 3-isobutyl-1-methylxanthine]
effect of supplementing on AKAR3 responses (PKA activity [1]; FIG. 2): sustained responses and increased their amplitude | effect on ritodrine-stimulated AKAR3 response (PKA activity [2]; 100 μM IBMX after 50 μM ritodrine, FIG. 3d): enhanced | AKAR3 response in single cell imaging (PKA activity [2]): did not generate any AKAR responses | effect of supplementing on ICUE3 responses (cAMP [3]; FIG. 2): sustained responses and increased their amplitude

CC(C)NCC(O)c1ccc(O)c(O)c1 (stereo not shown) [ISO, isoproterenol]
emission ratio change with AKAR3-NES compared to the AKAR3 assay (PKA activity [1]; AKAR3-NES, plate reader, FIG. 1d): larger increase in emission ratio followed by a more rapid decrease | increase in yellow-to-cyan emission ratio of AKAR3 (PKA activity [1]): 22.1%±0.7% | average response of plasma membrane-targeted AKAR3 (PKA activity [2]; HEK-293, 1 μM ISO, n=3, FIG. 7a): 34.3%±5.4% | maximum response (emission ratio elevation) of AKAR3.2 (PKA activity [2]; HEK-293 cells expressing AKAR3.2, 1 μM ISO, FIG. 6): approximately 65% | agonist screen: AKAR response to compound alone (PKA activity [4]): stimulated AKAR responses on their own

C=CC1=C(C)/C(=C/c2[nH]c(Cc3[nH]c(/C=C4\NC(=O)C(C)=C4C=C)c(C)c3CCC(=O)O)c(CCC(=O)O)c2C)NC1=O [bilirubin]
inhibition at 1 µM (cAMP [5]; 1 μM bilirubin): 40% | inhibition at 10 µM (cAMP [5]; 10 μM bilirubin): > 60%

CNC[C@H](O)c1ccc(O)c(O)c1 [epinephrine]
AKAR3 response in single cell imaging (PKA activity [2]): stimulates cAMP production and PKA activation | antagonist screen: effect on ISO-stimulated AKAR response (PKA activity [4]; 10 μM compound about 15 min, then 0.25 μM ISO): decreased the cell response to subsequent stimulation by ISO | agonist screen: AKAR response to compound alone (PKA activity [4]): stimulated AKAR responses on their own

CC(NCCc1ccc(O)cc1)C(O)c1ccc(O)cc1 (stereo not shown) [ritodrine]
AKAR3 response in single cell imaging (PKA activity [2]): moderate and gradual response | agonist screen: AKAR response to compound alone (PKA activity [4]): stimulated AKAR responses on their own

AKAR3.2: PKA reporter fusion protein SEQ ID NO:4: cerulean fluorescent protein, FHA1, SEQ ID NO:3, circularly permuted YFP variant
dynamic range of the reporter (PKA activity [2]): 55-65%

AKAR3: PKA reporter fusion protein SEQ ID NO:1: ECFP 1-227, FHA1, PKA substrate linker SEQ ID NO:3, circularly permuted Venus
increase in emission ratio (yellow over cyan) of the reporter (PKA activity [2]): about 40% | emission ratio increase after addition of ATP (catalytic subunit of PKA; purified AKAR3, PKA catalytic subunit, 1 mM ATP, approximately 40 minutes): 29.1%±1.11% | FRET efficiency after phosphorylation (catalytic subunit of PKA; quantified using trypsin): 47.2%±7.67% | FRET efficiency before phosphorylation (catalytic subunit of PKA; quantified using trypsin): 38.8%±7.36%
